Assay results published in ChEMBL document CHEMBL4406871, “Novel berberine-based derivatives with potent hypoglycemic activity” (Bioorg Med Chem Lett, 2019).
Active and inactive are the calls of the source. No cut-off for these calls is given here.

Legend:
HepG2 [1] = test: Increase in glucose consumption in human HepG2 cells assessed as glucose content in medium at 10^-6 M measured after 24 hrs by glucose oxidase method relative to control; assay type: functional
[2] = molecular target: AMP-activated protein kinase (AMPK) alpha-1/beta-1/gamma-1 (Homo sapiens) (UniProt P54619+Q9Y478+Q13131); test: Agonist activity at AMPKalpha1beta1gamma1 (unknown origin); assay type: protein-complex assay
HepG2 [3] = test: Activation of AMPKalpha in human HepG2 cells assessed as induction of AMPKalpha phosphorylation at Thr172 residue at 10 uM by Western blot analysis; assay type: cell-based
[4] = molecular target: AMP-activated protein kinase, AMPK (Homo sapiens) (UniProt P54646+O43741+P54619+Q9UGJ0+Q9Y478+Q13131+Q9UGI9); test: Activation of AMPK in human HepG2 cells assessed as induction of ACC phosphorylation at Ser79 residue at 10 uM by Western blot analysis; assay type: cell-based
[5] = molecular target: T1, Peroxisome proliferator-activated receptor gamma (Homo sapiens, UniProt P37231); test: Transactivation of human PPARgamma transfected in U2OS cells co-tranfected with human RXR measured after 24 hrs by luciferase reporter assay; assay type: cell-based
T1 sequence (P37231 whole entry): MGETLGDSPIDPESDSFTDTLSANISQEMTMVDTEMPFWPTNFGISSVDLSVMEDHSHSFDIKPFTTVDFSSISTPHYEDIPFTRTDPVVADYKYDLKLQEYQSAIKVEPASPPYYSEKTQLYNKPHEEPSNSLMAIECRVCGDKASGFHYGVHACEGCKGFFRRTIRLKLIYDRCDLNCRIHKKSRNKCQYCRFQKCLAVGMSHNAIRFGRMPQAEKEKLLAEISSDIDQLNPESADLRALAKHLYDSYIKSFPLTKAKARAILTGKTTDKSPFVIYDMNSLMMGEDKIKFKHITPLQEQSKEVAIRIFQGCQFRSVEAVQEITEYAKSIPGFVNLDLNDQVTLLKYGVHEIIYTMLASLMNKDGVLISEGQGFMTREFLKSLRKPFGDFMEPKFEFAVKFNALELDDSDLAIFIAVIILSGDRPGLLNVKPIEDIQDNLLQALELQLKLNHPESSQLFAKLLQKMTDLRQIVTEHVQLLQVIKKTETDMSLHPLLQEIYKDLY

HepG2 [6] = test: Increase in glucose consumption in human HepG2 cells assessed as glucose content in medium at 10^-6 M measured after 24 hrs by glucose oxidase method relative to metformin; assay type: functional
HepG2 [7] = test: Increase in glucose consumption in human HepG2 cells assessed as glucose content in medium at 10^-6 M measured after 24 hrs by glucose oxidase method relative to rosiglitazone; assay type: functional
HepG2 [8] = test: Increase in glucose consumption in human HepG2 cells assessed as glucose content in medium at 10^-6 M measured after 24 hrs by glucose oxidase method relative to berberine; assay type: functional
[9] = Oral bioavailability in rat; assay type: ADME, organism-based; conditions: in vivo

AMP-activated protein kinase (AMPK) alpha-1/beta-1/gamma-1 (Homo sapiens), sequence (P54619 whole entry): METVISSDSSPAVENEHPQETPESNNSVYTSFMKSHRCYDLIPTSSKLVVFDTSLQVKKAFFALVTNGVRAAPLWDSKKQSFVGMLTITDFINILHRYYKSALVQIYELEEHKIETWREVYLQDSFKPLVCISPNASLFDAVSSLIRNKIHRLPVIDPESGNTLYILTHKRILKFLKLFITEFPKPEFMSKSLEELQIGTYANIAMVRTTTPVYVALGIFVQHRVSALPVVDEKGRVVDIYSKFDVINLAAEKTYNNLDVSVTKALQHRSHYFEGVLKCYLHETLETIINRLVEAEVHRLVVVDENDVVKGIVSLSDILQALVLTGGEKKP
AMP-activated protein kinase (AMPK) alpha-1/beta-1/gamma-1 (Homo sapiens), sequence (Q13131 whole entry partner): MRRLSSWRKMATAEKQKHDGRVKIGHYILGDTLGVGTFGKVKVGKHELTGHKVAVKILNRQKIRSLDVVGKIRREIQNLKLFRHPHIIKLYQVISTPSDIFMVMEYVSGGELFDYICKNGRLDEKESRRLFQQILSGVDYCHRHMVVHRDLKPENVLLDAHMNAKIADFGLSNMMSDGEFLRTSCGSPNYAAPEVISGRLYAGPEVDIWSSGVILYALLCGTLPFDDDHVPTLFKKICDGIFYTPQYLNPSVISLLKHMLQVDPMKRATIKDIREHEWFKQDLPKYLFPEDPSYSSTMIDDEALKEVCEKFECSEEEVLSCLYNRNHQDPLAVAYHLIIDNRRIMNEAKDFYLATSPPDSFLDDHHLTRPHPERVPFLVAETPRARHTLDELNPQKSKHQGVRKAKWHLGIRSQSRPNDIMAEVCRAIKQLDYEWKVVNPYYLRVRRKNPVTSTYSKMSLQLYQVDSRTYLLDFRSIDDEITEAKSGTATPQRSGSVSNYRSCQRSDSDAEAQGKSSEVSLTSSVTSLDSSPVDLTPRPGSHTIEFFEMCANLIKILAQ
AMP-activated protein kinase (AMPK) alpha-1/beta-1/gamma-1 (Homo sapiens), sequence (Q9Y478 2-270 partner limits assumed): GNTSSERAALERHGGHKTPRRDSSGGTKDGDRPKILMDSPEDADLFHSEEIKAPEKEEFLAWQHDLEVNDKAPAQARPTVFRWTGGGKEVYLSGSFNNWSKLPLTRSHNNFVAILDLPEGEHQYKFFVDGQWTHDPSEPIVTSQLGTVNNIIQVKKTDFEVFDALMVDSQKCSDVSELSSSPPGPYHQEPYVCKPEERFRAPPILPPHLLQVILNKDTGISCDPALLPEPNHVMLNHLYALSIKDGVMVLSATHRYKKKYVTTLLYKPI

Row | Compound | Activity (HepG2 [1]) [%] | other results
1 | COc1ccc2c(c1OC)CN1C(C(=O)O)Cc3cc4c(cc3C1C2)OCO4 (stereo unspecified) | 6.39 | 
2 | COc1ccc2c(c1OC)CN1C(CC(=O)O)Cc3cc4c(cc3C1C2)OCO4 (stereo unspecified) | 7.16 | 
3 | O=C(O)C1CCC2C(C1)c1cc(OCc3ccccc3)ccc1N2C(=O)c1ccc(Cl)cc1 (stereo unspecified) |  | Activity [2]: 362 nM
4 | COc1cc2c[n+]3c(cc2c(OC)c1OC)-c1cc2c(cc1CC3C(=O)O)OCO2.[Cl-] (stereo unspecified) | 9.1 | 
5 | COc1cc(OC)c2cc3[n+](cc2c1)C(C(=O)O)Cc1cc2c(cc1-3)OCO2.[Cl-] (stereo unspecified) | 8.62 | 
6 | CN(CCOc1ccc(CC2SC(=O)NC2=O)cc1)c1ccccn1 (stereo unspecified) [ROSIGLITAZONE] | 13.87 | 
7 | COc1ccc2c(c1OC)C[N+]1(CCCCC(=O)O)CCc3cc4c(cc3C1C2)OCO4.[Cl-] (stereo unspecified) | 14.52 | 
8 | COc1ccc2c(c1OC)C[N+]1(CC(=O)O)CCc3cc4c(cc3C1C2)OCO4.[Cl-] (stereo unspecified) | 15.4 | 
9 | COc1cc2c(c(OC)c1)CC1c3cc4c(cc3CC(C(=O)O)N1C2)OCO4 (stereo unspecified) | 9.65 | 
10 | COc1cc(OC)c2cc3[n+](cc2c1)C(CC(=O)O)Cc1cc2c(cc1-3)OCO2.[Cl-] (stereo unspecified) | 9.02 | 
11 | COc1ccc2cc3[n+](cc2c1OC)C(CC(=O)O)Cc1cc2c(cc1-3)OCO2.[Cl-] (stereo unspecified) | 2.8 | 
12 | CN(C)C(=N)NC(=N)N [METFORMIN] | 12.07 | 
13 | COc1ccc2c(c1OC)C[N+]1(Cc3ccc(C(=O)O)cc3)CCc3cc4c(cc3C1C2)OCO4.[Cl-] (stereo unspecified) | 12.11 | 
14 | COc1cc2cc3[n+](cc2cc1OC)C(C(=O)O)Cc1cc2c(cc1-3)OCO2.[Cl-] (stereo unspecified) | 6.92 | Activity (HepG2 [3]): Active; Activity [4]: Active; EC50 [5]: > 100 µM
15 | COc1cc2cc3[n+](cc2cc1OC)C(CC(=O)O)Cc1cc2c(cc1-3)OCO2.[Cl-] (stereo unspecified) | 15.31 | 
16 | COc1ccc(OC)c2c[n+]3c(cc12)-c1cc2c(cc1CC3CC(=O)O)OCO2.[Cl-] (stereo unspecified) | 9.44 | 
17 | COc1ccc2c(c1OC)C[N+]1(CCCC(=O)O)CCc3cc4c(cc3C1C2)OCO4.[Cl-] (stereo unspecified) | 16 | fold change (FC) (HepG2 [6]): 1.32; fold change (FC) (HepG2 [7]): 1.15
18 | COc1cc2c(cc1OC)CN1C(C(=O)O)Cc3cc4c(cc3C1C2)OCO4 (stereo unspecified) | 16.76 | Activity (HepG2 [3]): Active; Activity [4]: Active; fold change (FC) (HepG2 [8]): 3.23; fold change (FC) (HepG2 [6]): 1.39; fold change (FC) (HepG2 [7]): 1.2; EC50 [5]: > 100 µM
19 | COc1ccc2cc3[n+](cc2c1OC)CCc1cc2c(cc1-3)OCO2.[Cl-] [BERBERINE CHLORIDE] | 5.16 | bioavailability [9]: < 1%
20 | COc1ccc2cc3[n+](cc2c1OC)C(C(=O)O)Cc1cc2c(cc1-3)OCO2.[Cl-] (stereo unspecified) | 1.88 | 
21 | COc1ccc2c(c1OC)C[N+]1(CCCCCC(=O)O)CCc3cc4c(cc3C1C2)OCO4.[Cl-] (stereo unspecified) | 15.78 | 
22 | COc1ccc(OC)c2c[n+]3c(cc12)-c1cc2c(cc1CC3C(=O)O)OCO2.[Cl-] (stereo unspecified) | 7.44 | 
23 | COc1ccc(OC)c2c1CC1c3cc4c(cc3CC(C(=O)O)N1C2)OCO4 (stereo unspecified) | 12.43 | 
24 | COc1cc2c[n+]3c(cc2c(OC)c1OC)-c1cc2c(cc1CC3CC(=O)O)OCO2.[Cl-] (stereo unspecified) | 10.18 | 
